Test results from patent US8268854B2, “Aza-beta-carbolines and methods of using same” (The UWM Research Foundation, Inc., priority 2008, dated 2012).

How the values were obtained:
[1] = biological target: T1, GABAA receptor α1 subtype with β2 and γ2 subunits (Homo sapiens, UniProt P14867+P18507); assay: Competition binding assay with [3H]flunitrazepam; conditions: [3H]flunitrazepam, α1β2γ2, HEKT cells; read-out: GABAA RECEPTOR BINDING α1
T1 construct: expressed in transfected cells; host or cells: HEKT cell line, transient transfection with Fugene 6
Text: (§1) Bound radioactivity is quantified by liquid scintillation counting.

[2] = biological target: T2, GABAA receptor α5 subtype with β2 and γ2 subunits (Homo sapiens, UniProt P18507+P31644); assay: Competition binding assay with [3H]flunitrazepam; conditions: [3H]flunitrazepam, α5β2γ2, HEKT cells; read-out: GABAA RECEPTOR BINDING α5
T2 construct: expressed in transfected cells; host or cells: HEKT cell line, transient transfection with Fugene 6
Text: as §1

[3] = biological target: T3, GABAA receptor α2 subtype with β2 and γ2 subunits (Homo sapiens, UniProt P18507+P47869); assay: Competition binding assay with [3H]flunitrazepam; conditions: [3H]flunitrazepam, α2β2γ2, HEKT cells; read-out: GABAA RECEPTOR BINDING α2
T3 construct: expressed in transfected cells; host or cells: HEKT cell line, transient transfection with Fugene 6
Text: as §1

[4] = biological target: T4, GABAA receptor α3 subtype with β2 and γ2 subunits (Homo sapiens, UniProt P18507+P34903); assay: Competition binding assay with [3H]flunitrazepam; conditions: [3H]flunitrazepam, α3β2γ2, HEKT cells; read-out: GABAA RECEPTOR BINDING α3
T4 construct: expressed in transfected cells; host or cells: HEKT cell line, transient transfection with Fugene 6
Text: as §1

GABAA receptor = assay: PDSP radioligand binding assay (Example 6); conditions: Example 6, written in present tense
Procedure: Primary and secondary radioligand binding assays are performed. In general, the primary assay is run at very high ligand (compound) concentration as a broad screen to determine whether a compound binds to a particular receptor. If greater than 50% inhibition at 10 μM (high concentration of compound) at a particular receptor is determined, a secondary assay is performed on that receptor. Data from the secondary assay is the binding affinity (Ki value).
A solution of the compound to be tested is prepared as a 1 mg/ml stock in Standard Binding Buffer or dimethyl sulfoxide (DMSO) according to its solubility. A similar stock of a reference compound (positive control) is also prepared. […]
The 250 μL reactions are incubated at room temperature and shielded from light (to prevent photolysis of light-sensitive ligands) for 1.5 hours, then harvested by rapid filtration onto Whatman GF/B glass fiber filters pre-soaked with 0.3% polyethyleneimine using a 96-well Brandel harvester. […] The tubes are capped, labeled, and counted by liquid scintillation counting. For higher throughput assays, bound radioactivity is harvested onto 0.3% polyethyleneimine-treated, 96-well filter mats using a 96-well Filtermate harvester. The filter mats are dried, then scintillant is melted onto the filters, and the radioactivity retained on the filters is counted in a Microbeta scintillation counter. […]

[5] = test system: BzR/GABAa-ergic receptors; conditions: Example 8, written in present tense

Ki [1] [nM] | Ki [2] [nM] | Ki [3] [nM] | Ki [4] [nM] | Molecule | binding to GABAA receptor (in words) (GABAA receptor) | binding to the BzR/GABAa-ergic receptors (in words) [5]
2.9 | 3.7 | 2.5 | 3.4 | CC(C)(C)OC(=O)c1cc2c(cn1)[nH]c1cnccc12 [Compound 3, Tert-Butyl pyridine[4′,5′-5,4]pyrrolo[2,3-c]pyridine-3-carboxylate] | shown to bind to GABAA receptor | 
 |  |  |  | tert-Butyl pyridine[4′,5′-4,5]pyrrolo[3,2-c]pyridine-8-carboxylate [Compound 1] | shown to bind to GABAA receptor | potently binds
